Test results: US10167262B2, “Herbicidal substituted 3-arylpyrazoles” (FMC CORPORATION, priority 2014, dated 2019)

Tests used:
Test in all cases: Test A pre-/postemergence greenhouse herbicide test, visual injury rating 0-100
Assay type in all cases: in vivo
[1] = test system: barnyardgrass (Echinochloa crus-galli)
Source text: (§1) Seeds of plant species selected from barnyardgrass (Echinochloa crus-galli), large (Lg) crabgrass (Digitaria sanguinalis), giant foxtail (Setaria faberii), morningglory (Ipomoea spp.), pigweed (Amaranthus retroflexus), velvetleaf (Abutilon theophrasti), wheat (Triticum aestivum), and corn (Zea mays) were planted into a blend of loam soil and sand and treated preemergence with a directed soil spray using test chemicals formulated in a non-phytotoxic solvent mixture which included a surfactant. At the same time these species were also treated with postemergence applications of test chemicals formulated in the same manner. Plants ranged in height from 2 to 10 cm and were in the one- to two-leaf stage for the postemergence treatment. Treated plants and untreated controls were maintained in a greenhouse for approximately 10 days, after which time all treated plants were compared to untreated controls and visually evaluated for injury. Plant response ratings, summarized in Table A, are based on a 0 to 100 scale where 0 is no effect and 100 is complete control. A dash (-) response means no test result.

corn (Zea mays) = test system: corn (Zea mays)
Source text: as §1

[2] = test system: giant foxtail (Setaria faberii)
Source text: as §1

[3] = test system: large (Lg) crabgrass (Digitaria sanguinalis)
Source text: as §1

[4] = test system: morningglory (Ipomoea spp.)
Source text: as §1

[5] = test system: pigweed (Amaranthus retroflexus)
Source text: as §1

[6] = test system: velvetleaf (Abutilon theophrasti)
Source text: as §1

[7] = test system: wheat (Triticum aestivum)
Source text: as §1

Clc1cc(Cl)cc(-c2n[nH]cc2C(=NNc2ccccc2)c2ccccc2)c1 [Compound 33]
Plant response rating (0 to 100 scale), Barnyardgrass ([1]; Postemergence, 1000 g ai/ha): 0
Plant response rating (0 to 100 scale), Barnyardgrass ([1]; Preemergence, 1000 g ai/ha): 0
Plant response rating (0 to 100 scale), Corn (corn (Zea mays); Postemergence, 1000 g ai/ha): 0
Plant response rating (0 to 100 scale), Corn (corn (Zea mays); Preemergence, 1000 g ai/ha): 0
Plant response rating (0 to 100 scale), Foxtail, Giant ([2]; Postemergence, 1000 g ai/ha): 0
Plant response rating (0 to 100 scale), Foxtail, Giant ([2]; Preemergence, 1000 g ai/ha): 0
Plant response rating (0 to 100 scale), Crabgrass, Large ([3]; Postemergence, 1000 g ai/ha): 0
Plant response rating (0 to 100 scale), Crabgrass, Large ([3]; Preemergence, 1000 g ai/ha): 0
Plant response rating (0 to 100 scale), Morningglory ([4]; Postemergence, 1000 g ai/ha): 0
Plant response rating (0 to 100 scale), Morningglory ([4]; Preemergence, 1000 g ai/ha): 0
Plant response rating (0 to 100 scale), Pigweed ([5]; Postemergence, 1000 g ai/ha): 100
Plant response rating (0 to 100 scale), Pigweed ([5]; Preemergence, 1000 g ai/ha): 100
Plant response rating (0 to 100 scale), Velvetleaf ([6]; Postemergence, 1000 g ai/ha): 100
Plant response rating (0 to 100 scale), Velvetleaf ([6]; Preemergence, 1000 g ai/ha): 80
Plant response rating (0 to 100 scale), Wheat ([7]; Postemergence, 1000 g ai/ha): 0
Plant response rating (0 to 100 scale), Wheat ([7]; Preemergence, 1000 g ai/ha): 0

FC(F)(F)Cn1cc(C(=NNc2ccccc2)c2ccccc2)c(-c2cc(Cl)cc(Cl)c2)n1 [Compound 34]
Plant response rating (0 to 100 scale), Barnyardgrass ([1]; Postemergence, 125 g ai/ha): 0
Plant response rating (0 to 100 scale), Barnyardgrass ([1]; Postemergence, 500 g ai/ha): 0
Barnyardgrass plant response rating (0 = no effect, 100 = complete control) ([1]; Preemergence, 125 g ai/ha): 0
Plant response rating (0 to 100 scale), Barnyardgrass ([1]; Preemergence, 500 g ai/ha): 0
Plant response rating (0 to 100 scale), Corn (corn (Zea mays); Postemergence, 125 g ai/ha): 0
Plant response rating (0 to 100 scale), Corn (corn (Zea mays); Postemergence, 500 g ai/ha): 0
Corn plant response rating (0 = no effect, 100 = complete control) (corn (Zea mays); Preemergence, 125 g ai/ha): 0
Plant response rating (0 to 100 scale), Corn (corn (Zea mays); Preemergence, 500 g ai/ha): 0
Plant response rating (0 to 100 scale), Foxtail, Giant ([2]; Postemergence, 125 g ai/ha): 0
Plant response rating (0 to 100 scale), Foxtail, Giant ([2]; Postemergence, 500 g ai/ha): 0
Foxtail, Giant plant response rating (0 = no effect, 100 = complete control) ([2]; Preemergence, 125 g ai/ha): 0
Plant response rating (0 to 100 scale), Foxtail, Giant ([2]; Preemergence, 500 g ai/ha): 0
Plant response rating (0 to 100 scale), Crabgrass, Large ([3]; Postemergence, 125 g ai/ha): 0
Plant response rating (0 to 100 scale), Crabgrass, Large ([3]; Postemergence, 500 g ai/ha): 0
Crabgrass, Large plant response rating (0 = no effect, 100 = complete control) ([3]; Preemergence, 125 g ai/ha): 0
Plant response rating (0 to 100 scale), Crabgrass, Large ([3]; Preemergence, 500 g ai/ha): 0
Plant response rating (0 to 100 scale), Morningglory ([4]; Postemergence, 125 g ai/ha): 0
Plant response rating (0 to 100 scale), Morningglory ([4]; Postemergence, 500 g ai/ha): 0
Morningglory plant response rating (0 = no effect, 100 = complete control) ([4]; Preemergence, 125 g ai/ha): 0
Plant response rating (0 to 100 scale), Morningglory ([4]; Preemergence, 500 g ai/ha): 0
Plant response rating (0 to 100 scale), Pigweed ([5]; Postemergence, 125 g ai/ha): 0
Plant response rating (0 to 100 scale), Pigweed ([5]; Postemergence, 500 g ai/ha): 20
Pigweed plant response rating (0 = no effect, 100 = complete control) ([5]; Preemergence, 125 g ai/ha): 0
Plant response rating (0 to 100 scale), Pigweed ([5]; Preemergence, 500 g ai/ha): 0
Plant response rating (0 to 100 scale), Velvetleaf ([6]; Postemergence, 125 g ai/ha): 10
Plant response rating (0 to 100 scale), Velvetleaf ([6]; Postemergence, 500 g ai/ha): 30
Velvetleaf plant response rating (0 = no effect, 100 = complete control) ([6]; Preemergence, 125 g ai/ha): 0
Plant response rating (0 to 100 scale), Velvetleaf ([6]; Preemergence, 500 g ai/ha): 0
Plant response rating (0 to 100 scale), Wheat ([7]; Postemergence, 125 g ai/ha): 0
Plant response rating (0 to 100 scale), Wheat ([7]; Postemergence, 500 g ai/ha): 0
Wheat plant response rating (0 = no effect, 100 = complete control) ([7]; Preemergence, 125 g ai/ha): 0
Plant response rating (0 to 100 scale), Wheat ([7]; Preemergence, 500 g ai/ha): 0

CCn1cc(C(=NNc2ccccc2)c2ccccc2)c(-c2cc(Cl)cc(Cl)c2)n1 [Compound 36]
Plant response rating (0 to 100 scale), Barnyardgrass ([1]; Postemergence, 125 g ai/ha): 0
Plant response rating (0 to 100 scale), Barnyardgrass ([1]; Postemergence, 500 g ai/ha): 0
Barnyardgrass plant response rating (0 = no effect, 100 = complete control) ([1]; Preemergence, 125 g ai/ha): 0
Plant response rating (0 to 100 scale), Barnyardgrass ([1]; Preemergence, 500 g ai/ha): 0
Plant response rating (0 to 100 scale), Corn (corn (Zea mays); Postemergence, 125 g ai/ha): 0
Plant response rating (0 to 100 scale), Corn (corn (Zea mays); Postemergence, 500 g ai/ha): 0
Corn plant response rating (0 = no effect, 100 = complete control) (corn (Zea mays); Preemergence, 125 g ai/ha): 0
Plant response rating (0 to 100 scale), Corn (corn (Zea mays); Preemergence, 500 g ai/ha): 0
Plant response rating (0 to 100 scale), Foxtail, Giant ([2]; Postemergence, 125 g ai/ha): 0
Plant response rating (0 to 100 scale), Foxtail, Giant ([2]; Postemergence, 500 g ai/ha): 0
Foxtail, Giant plant response rating (0 = no effect, 100 = complete control) ([2]; Preemergence, 125 g ai/ha): 0
Plant response rating (0 to 100 scale), Foxtail, Giant ([2]; Preemergence, 500 g ai/ha): 0
Plant response rating (0 to 100 scale), Crabgrass, Large ([3]; Postemergence, 125 g ai/ha): 0
Plant response rating (0 to 100 scale), Crabgrass, Large ([3]; Postemergence, 500 g ai/ha): 0
Crabgrass, Large plant response rating (0 = no effect, 100 = complete control) ([3]; Preemergence, 125 g ai/ha): 0
Plant response rating (0 to 100 scale), Crabgrass, Large ([3]; Preemergence, 500 g ai/ha): 0
Plant response rating (0 to 100 scale), Morningglory ([4]; Postemergence, 125 g ai/ha): 0
Plant response rating (0 to 100 scale), Morningglory ([4]; Postemergence, 500 g ai/ha): 0
Morningglory plant response rating (0 = no effect, 100 = complete control) ([4]; Preemergence, 125 g ai/ha): 0
Plant response rating (0 to 100 scale), Morningglory ([4]; Preemergence, 500 g ai/ha): 0
Plant response rating (0 to 100 scale), Pigweed ([5]; Postemergence, 125 g ai/ha): 30
Plant response rating (0 to 100 scale), Pigweed ([5]; Postemergence, 500 g ai/ha): 80
Pigweed plant response rating (0 = no effect, 100 = complete control) ([5]; Preemergence, 125 g ai/ha): 0
Plant response rating (0 to 100 scale), Pigweed ([5]; Preemergence, 500 g ai/ha): 70
Plant response rating (0 to 100 scale), Velvetleaf ([6]; Postemergence, 125 g ai/ha): 70
Plant response rating (0 to 100 scale), Velvetleaf ([6]; Postemergence, 500 g ai/ha): 90
Velvetleaf plant response rating (0 = no effect, 100 = complete control) ([6]; Preemergence, 125 g ai/ha): 20
Plant response rating (0 to 100 scale), Velvetleaf ([6]; Preemergence, 500 g ai/ha): 20
Plant response rating (0 to 100 scale), Wheat ([7]; Postemergence, 125 g ai/ha): 0
Plant response rating (0 to 100 scale), Wheat ([7]; Postemergence, 500 g ai/ha): 0
Wheat plant response rating (0 = no effect, 100 = complete control) ([7]; Preemergence, 125 g ai/ha): 0
Plant response rating (0 to 100 scale), Wheat ([7]; Preemergence, 500 g ai/ha): 0

Brc1cc(Br)cc(-c2n[nH]cc2C2(c3ccccc3)SCCS2)c1 [Compound 62]
Plant response rating (0 to 100 scale), Barnyardgrass ([1]; Postemergence, 1000 g ai/ha): 0
Plant response rating (0 to 100 scale), Barnyardgrass ([1]; Preemergence, 1000 g ai/ha): 0
Plant response rating (0 to 100 scale), Corn (corn (Zea mays); Postemergence, 1000 g ai/ha): 0
Plant response rating (0 to 100 scale), Corn (corn (Zea mays); Preemergence, 1000 g ai/ha): 0
Plant response rating (0 to 100 scale), Foxtail, Giant ([2]; Postemergence, 1000 g ai/ha): 0
Plant response rating (0 to 100 scale), Foxtail, Giant ([2]; Preemergence, 1000 g ai/ha): 0
Plant response rating (0 to 100 scale), Crabgrass, Large ([3]; Postemergence, 1000 g ai/ha): 0
Plant response rating (0 to 100 scale), Crabgrass, Large ([3]; Preemergence, 1000 g ai/ha): 0
Plant response rating (0 to 100 scale), Pigweed ([5]; Postemergence, 1000 g ai/ha): 100
Plant response rating (0 to 100 scale), Pigweed ([5]; Preemergence, 1000 g ai/ha): 80
Plant response rating (0 to 100 scale), Velvetleaf ([6]; Postemergence, 1000 g ai/ha): 90
Plant response rating (0 to 100 scale), Velvetleaf ([6]; Preemergence, 1000 g ai/ha): 60
Plant response rating (0 to 100 scale), Wheat ([7]; Postemergence, 1000 g ai/ha): 0
Plant response rating (0 to 100 scale), Wheat ([7]; Preemergence, 1000 g ai/ha): 0
